US20070155764A1, “NOVEL SUBSTITUTED PYRIMIDINYLOXY UREAS USEFUL AS INHIBITORS OF PROTEIN KINASES” (KALYPSYS, INC., priority 2005, published 2007)

Legend:
PDGFRβ kinase = target: T1, PDGFRβ kinase (Homo sapiens, UniProt P09619); assay: In vitro PDGFRβ kinase assay; format: biochemical; settings: ADP Quest assay, poly Glu:Tyr substrate, 60 μM ATP
T1 construct: purchased Invitrogen Inc. P3082
Outline: (§1)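 Compound was preincubated 10 min at ~22 °C with 20 ng VEGFR2 or 25 ng PDGFRβ, then poly Glu:Tyr (4:1) substrate (0.25 μg) with 60 μM ATP (in added buffer) was reacted 2 h at 30 °C. ADP Quest resorufin fluorescence was read (ex 530/em 580) after 30 min. Efficacy is expressed as percent of positive-control (Bay 43-9006) activity, with DMSO as negative control.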

[1] = target: T2, human B-Raf protein kinase (Homo sapiens, UniProt P15056); assay: In vitro B-Raf/Mek1 composite kinase assay; format: biochemical; settings: recombinant GST-tagged human B-Raf (Δ1-415) with inactive Mek1, 2 μM ATP
T2 construct: GST (N); purchased Upstate Inc. 14-530 (B-Raf); 14-420 (Mek1)
T2 sequence (P15056 416-766): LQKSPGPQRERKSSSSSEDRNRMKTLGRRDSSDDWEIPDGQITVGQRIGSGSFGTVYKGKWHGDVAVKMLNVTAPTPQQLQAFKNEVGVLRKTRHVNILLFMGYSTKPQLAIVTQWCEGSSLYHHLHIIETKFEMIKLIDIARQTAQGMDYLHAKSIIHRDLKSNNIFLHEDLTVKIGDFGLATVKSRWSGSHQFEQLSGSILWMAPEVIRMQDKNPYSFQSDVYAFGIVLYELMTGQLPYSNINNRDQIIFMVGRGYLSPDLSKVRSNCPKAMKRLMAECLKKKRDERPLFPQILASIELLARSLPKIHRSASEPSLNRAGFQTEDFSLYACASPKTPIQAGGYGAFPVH
Outline: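 Luminescent ATP-depletion assay using recombinant N-terminal GST-tagged human B-Raf (Δ1-415, 1 ng/well) in MOPS pH 7.2 buffer with 10 mM MgCl2. Compounds were preincubated 15 min at about 22° C, then the reaction ran 2 h before PKLight readout. Efficacy is expressed as percentage of positive-control (Bay 43-9006) activity.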

[2] = tested on: HT-29 human colon carcinoma tumor cells; assay: In vivo anti-tumor activity, HT-29 xenograft; settings: 60 mg/kg once daily by oral gavage; for T/C (%): HT-29 subcutaneous tumors in female Balb/C nu/nu mice, treated/control average tumor size at end of study; for Survival: HT-29 tumor-bearing female Balb/C nu/nu mice, surviving/total
Procedure: In Vivo Anti-Tumor Activity
Acclimated female Balb/C nu/nu mice are injected subcutaneously into the flank with cell pellets of 5×10^6 HT-29 human colon carcinoma tumor cells (ATCC #HTB-38). The mice are fed sterile rodent chow and water ad libitum, and kept in pathogen-free, sterile-filtered cages with half-day light/dark cycles. Tumors are allowed to grow until they reach an average size of 100-150 mm^3, determined by caliper measurement. One day before beginning treatment, mice are randomized by tumor size into evenly distributed cohorts. Mice are dosed once daily by oral gavage (10 ml/kg) with compounds formulated as solutions in Cremaphor EL:Ethanol:Water, at a 1:1:6 ratio. Control mice are dosed with the formulation vehicle only. Tumor size and mouse weight are monitored every three to four days. At the end of the study, treatment efficacy is determined by the T/C value, calculated by dividing the average tumor size of a compound-treated cohort by the average tumor size of the control-treated cohort, expressed as a percentage. Therefore, anti-tumor efficacy is inversely proportional to the T/C.

VEGFR2 kinase = target: T3, VEGFR2 kinase (Homo sapiens, UniProt P35968); assay: In vitro VEGFR2 kinase assay; format: biochemical; settings: ADP Quest assay, poly Glu:Tyr substrate, 60 μM ATP
T3 construct: purchased Invitrogen Inc PV3660
T3 sequence (P35968 20-1356): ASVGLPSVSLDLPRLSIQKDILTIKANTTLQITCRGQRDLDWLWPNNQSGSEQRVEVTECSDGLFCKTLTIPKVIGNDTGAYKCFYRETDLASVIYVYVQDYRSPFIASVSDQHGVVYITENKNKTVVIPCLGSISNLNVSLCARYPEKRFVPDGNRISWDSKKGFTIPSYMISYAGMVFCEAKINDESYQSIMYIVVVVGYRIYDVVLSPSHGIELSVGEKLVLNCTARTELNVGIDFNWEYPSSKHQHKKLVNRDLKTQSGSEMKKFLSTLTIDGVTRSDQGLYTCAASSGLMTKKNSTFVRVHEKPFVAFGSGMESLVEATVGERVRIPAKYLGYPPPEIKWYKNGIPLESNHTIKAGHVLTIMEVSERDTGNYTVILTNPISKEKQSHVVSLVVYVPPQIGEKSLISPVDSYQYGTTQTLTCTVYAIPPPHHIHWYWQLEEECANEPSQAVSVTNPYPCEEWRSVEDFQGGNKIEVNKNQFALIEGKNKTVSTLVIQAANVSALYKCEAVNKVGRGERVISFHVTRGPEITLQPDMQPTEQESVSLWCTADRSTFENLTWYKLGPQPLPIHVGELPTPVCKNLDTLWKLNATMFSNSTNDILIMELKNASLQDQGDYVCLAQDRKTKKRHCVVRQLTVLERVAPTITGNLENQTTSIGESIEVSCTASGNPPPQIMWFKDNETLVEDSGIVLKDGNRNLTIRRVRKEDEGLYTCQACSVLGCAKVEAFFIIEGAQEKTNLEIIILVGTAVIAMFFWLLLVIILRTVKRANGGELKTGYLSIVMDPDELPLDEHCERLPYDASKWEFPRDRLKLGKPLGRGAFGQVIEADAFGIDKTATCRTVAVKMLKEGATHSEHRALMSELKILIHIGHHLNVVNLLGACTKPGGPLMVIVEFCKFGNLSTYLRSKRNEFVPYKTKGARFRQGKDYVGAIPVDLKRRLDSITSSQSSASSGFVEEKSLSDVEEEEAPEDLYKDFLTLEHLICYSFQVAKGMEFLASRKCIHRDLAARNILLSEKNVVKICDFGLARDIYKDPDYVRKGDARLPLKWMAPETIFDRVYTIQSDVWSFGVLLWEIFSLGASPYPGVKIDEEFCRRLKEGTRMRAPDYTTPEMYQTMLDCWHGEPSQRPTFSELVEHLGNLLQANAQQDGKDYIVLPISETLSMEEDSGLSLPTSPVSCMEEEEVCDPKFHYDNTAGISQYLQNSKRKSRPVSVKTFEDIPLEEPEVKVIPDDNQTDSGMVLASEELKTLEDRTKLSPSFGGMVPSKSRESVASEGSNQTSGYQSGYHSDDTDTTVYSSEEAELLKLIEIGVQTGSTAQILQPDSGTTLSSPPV
Outline: as §1

T1 sequence (P09619 33-1106): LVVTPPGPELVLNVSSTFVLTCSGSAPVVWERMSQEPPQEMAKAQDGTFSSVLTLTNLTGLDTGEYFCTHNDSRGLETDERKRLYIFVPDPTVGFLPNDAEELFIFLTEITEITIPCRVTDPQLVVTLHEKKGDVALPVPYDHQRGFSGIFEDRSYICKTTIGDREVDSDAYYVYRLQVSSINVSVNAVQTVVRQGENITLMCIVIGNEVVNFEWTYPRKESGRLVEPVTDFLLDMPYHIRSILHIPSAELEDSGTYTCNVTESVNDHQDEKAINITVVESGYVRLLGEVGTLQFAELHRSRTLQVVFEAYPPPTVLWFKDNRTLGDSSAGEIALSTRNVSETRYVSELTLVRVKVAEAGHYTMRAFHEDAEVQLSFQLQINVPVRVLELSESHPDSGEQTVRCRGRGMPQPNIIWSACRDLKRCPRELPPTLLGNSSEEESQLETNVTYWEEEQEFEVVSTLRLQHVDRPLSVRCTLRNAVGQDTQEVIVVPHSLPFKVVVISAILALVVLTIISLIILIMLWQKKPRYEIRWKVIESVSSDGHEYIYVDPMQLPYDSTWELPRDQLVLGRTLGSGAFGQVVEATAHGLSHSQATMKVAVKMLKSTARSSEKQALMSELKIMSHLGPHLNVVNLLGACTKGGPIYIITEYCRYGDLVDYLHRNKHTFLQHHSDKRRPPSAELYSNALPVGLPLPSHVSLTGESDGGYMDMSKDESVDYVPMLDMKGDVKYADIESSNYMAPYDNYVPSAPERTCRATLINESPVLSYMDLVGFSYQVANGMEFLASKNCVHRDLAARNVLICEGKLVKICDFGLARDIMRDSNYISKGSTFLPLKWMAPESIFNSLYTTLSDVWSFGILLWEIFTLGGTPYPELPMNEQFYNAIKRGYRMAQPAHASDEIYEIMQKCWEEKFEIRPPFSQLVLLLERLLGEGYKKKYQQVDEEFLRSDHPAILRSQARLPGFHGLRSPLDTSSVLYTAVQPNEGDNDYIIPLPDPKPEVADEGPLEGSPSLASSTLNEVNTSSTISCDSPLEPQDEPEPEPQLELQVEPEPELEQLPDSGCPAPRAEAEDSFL

IC50 (PDGFRβ kinase) [µM] | IC50 [1] [µM] | IC50 (VEGFR2 kinase) [µM] | SMILES | T/C (%) [2] [%] | Survival [2]
≤ 10 | > 10 | ≤ 10 | CNC(=O)c1cc(Oc2ccc(N(C)C(=O)Nc3cc(OCCOC)cc(C(F)(F)F)c3)cc2)ccn1 [Example 117, 4-(4-{3-[3-(2-Methoxy-ethoxy)-5-trifluoromethyl-phenyl]-1-methyl-ureido}-phenoxy)-pyridine-2-carboxylic acid methylamide] | – | –
≤ 10 | ≤ 10 | ≤ 10 | O=C(Nc1cccc(Oc2cc(-c3ccnc4ccnn34)ncn2)c1)Nc1ccc(Cl)c(C(F)(F)F)c1 [Example 106, 1-(4-Chloro-3-(trifluoromethyl)phenyl)-3-(3-(6-(pyrazolo[1,5-a]pyrimidin-7-yl)pyrimidin-4-yloxy)phenyl)urea] | – | –
≤ 10 | ≤ 10 | ≤ 10 | Cn1cc(-c2cc(Oc3ccc(F)c(NC(=O)Nc4ccc(C(F)(F)F)cc4Cl)c3)ncn2)cn1 [Example 97, 1-(2-Chloro-4-(trifluoromethyl)phenyl)-3-(2-fluoro-5-(6-(1-methyl-1H-pyrazol-4-yl)pyrimidin-4-yloxy)phenyl)urea] | – | –
≤ 10 | ≤ 10 | > 10 | CN(C(=O)Nc1ccc(Cl)c(Cl)c1)c1ccc(Oc2ccnc(-c3nnco3)c2)cc1 [Example 113, 3-(3,4-Dichloro-phenyl)-1-methyl-1-[4-(2-[1,3,4]oxadiazol-2-yl-pyridin-4-yloxy)-phenyl]-urea] | – | –
≤ 10 | ≤ 10 | ≤ 10 | COC(=O)Cn1cc(-c2cc(Oc3cccc(NC(=O)Nc4ccc(Cl)c(C(F)(F)F)c4)c3)ncn2)cn1 [Example 54, Methyl 2-(4-(6-(3-(3-(4-chloro-3-(trifluoromethyl)phenyl)ureido)phenoxy)pyrimidin-4-yl)-1H-pyrazol-1-yl)acetate] | – | –
≤ 10 | ≤ 10 | ≤ 10 | Cc1nc(-c2cc(Oc3cccc(NC(=O)Nc4ccc(Cl)c(C(F)(F)F)c4)c3)ncn2)cs1 [Example 46, 1-(4-Chloro-3-(trifluoromethyl)phenyl)-3-(3-(6-(2-methylthiazol-4-yl)pyrimidin-4-yloxy)phenyl)urea] | – | –
≤ 10 | ≤ 10 | ≤ 10 | O=C(Nc1cccc(Oc2cc(-c3nnco3)ncn2)c1)Nc1ccc(C(F)(F)F)c(Cl)c1 [Example 48, 1-(3-(6-(1,3,4-Oxadiazol-2-yl)pyrimidin-4-yloxy)phenyl)-3-(3-chloro-4-(trifluoromethyl)phenyl)urea] | – | –
≤ 10 | ≤ 10 | ≤ 10 | O=C(Nc1cccc(Oc2cc(-c3ncc[nH]3)ncn2)c1)Nc1ccc(Cl)c(C(F)(F)F)c1 [Example 85, 1-(3-(6-(1H-Imidazol-2-yl)pyrimidin-4-yloxy)phenyl)-3-(4-chloro-3-(trifluoromethyl)phenyl)urea] | – | –
≤ 10 | ≤ 10 | ≤ 10 | O=C(Nc1ccc(Oc2ccnc(-c3nnco3)c2)cc1)Nc1cc(CN2CCOCC2)cc(C(F)(F)F)c1 [Example 43, 1-(4-(2-(1,3,4-Oxadiazol-2-yl)pyridin-4-yloxy)phenyl)-3-(3-(morpholinomethyl)-5-(trifluoromethyl)phenyl)urea] | – | –
≤ 10 | ≤ 10 | ≤ 10 | Cn1cc(-c2nccc(Oc3cc(NC(=O)Nc4ccc(Cl)c(C(F)(F)F)c4)c(F)cc3F)n2)cn1 [Example 67, 1-(4-Chloro-3-(trifluoromethyl)phenyl)-3-(2,4-difluoro-5-(2-(1-methyl-1H-pyrazol-4-yl)pyrimidin-4-yloxy)phenyl)urea] | – | –
≤ 10 | ≤ 10 | ≤ 10 | Cn1cc(-c2cc(Oc3ccc(F)c(NC(=O)Nc4ccc(C(F)(F)F)cc4F)c3)ncn2)cn1 [Example 90, 1-(2-Fluoro-4-(trifluoromethyl)phenyl)-3-(2-fluoro-5-(6-(1-methyl-1H-pyrazol-4-yl)pyrimidin-4-yloxy)phenyl)urea] | – | –

SMILES | IC50 (PDGFRβ kinase) [µM] | IC50 [1] [µM] | IC50 (VEGFR2 kinase) [µM] | T/C (%) [2] [%] | Survival [2]
Cn1cc(-c2nccc(Oc3ccc(NC(=O)Nc4ccc(Cl)c(C(F)(F)F)c4)cc3)n2)cn1 [Example 65, 1-(4-Chloro-3-(trifluoromethyl)phenyl)-3-(4-(2-(1-methyl-1H-pyrazol-4-yl)pyrimidin-4-yloxy)phenyl)urea] | ≤ 10 | ≤ 10 | ≤ 10 | 25 | 10/10
Cn1cc(-c2cc(Oc3cccc(NC(=O)Nc4ccc(C(F)(F)F)cc4)c3)ncn2)cn1 [Example 87, 1-(3-(6-(1-Methyl-1H-pyrazol-4-yl)pyrimidin-4-yloxy)phenyl)-3-(4-(trifluoromethyl)phenyl)urea] | ≤ 10 | ≤ 10 | ≤ 10 | 15 | 10/10
Cn1cc(-c2cc(Oc3cccc(NC(=O)Nc4ccc(Cl)c(C(F)(F)F)c4)c3)ncn2)cn1 [Example 34, 1-(4-Chloro-3-(trifluoromethyl)phenyl)-3-(3-(6-(1-methyl-1H-pyrazol-4-yl)pyrimidin-4-yloxy)phenyl)urea] | ≤ 10 | ≤ 10 | ≤ 10 | 20 | 10/10
Cn1cc(-c2cc(Oc3ccc(F)c(NC(=O)Nc4ccc(Cl)c(C(F)(F)F)c4)c3)ncn2)cn1 [Example 66, 1-(4-Chloro-3-(trifluoromethyl)phenyl)-3-(2-fluoro-5-(6-(1-methyl-1H-pyrazol-4-yl)pyrimidin-4-yloxy)phenyl)urea] | ≤ 10 | ≤ 10 | ≤ 10 | 11 | 10/10
